In patent US11673894B2, “Imidazopyrimidines and triazolopyrimidines as A2A / A2B inhibitors” (Incyte Corporation, priority 2018, dated 2023):
One block for each compound: values may come before it.

Experiments:
[1] = molecular target: Adenosine A2A receptor (Homo sapiens (Human), UniProt P29274); assay: A2A Tag-lite HTRF Assay; settings: Tag-lite Adenosine A2A labeled cells; A2A Receptor Red antagonist fluorescent ligand 12.5 nM; one-site competitive binding model; read-out: A2A_Ki
Excerpt: The final concentration of DMSO was 1%.

[2] = molecular target: human adenosine A2B receptor (Homo sapiens (Human), UniProt P29275); assay: Adenosine A2B Receptor Cyclic AMP GS Assay; type: cell-based; settings: HEK-293 cells expressing human A2B receptor; agonist NECA at 12 nM; cAMP accumulation (FRET); read-out: A2B_cAMP_EC50
Sequence of human adenosine A2B receptor (P29275 whole entry): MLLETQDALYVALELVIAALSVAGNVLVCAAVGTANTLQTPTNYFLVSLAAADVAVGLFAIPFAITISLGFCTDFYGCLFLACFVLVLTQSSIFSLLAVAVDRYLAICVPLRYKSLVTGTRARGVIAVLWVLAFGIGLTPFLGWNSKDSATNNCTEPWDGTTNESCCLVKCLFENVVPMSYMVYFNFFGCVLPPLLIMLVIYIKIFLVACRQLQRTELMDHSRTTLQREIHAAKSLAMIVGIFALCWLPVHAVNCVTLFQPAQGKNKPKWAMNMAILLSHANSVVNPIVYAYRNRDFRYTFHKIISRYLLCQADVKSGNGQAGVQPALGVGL
How it was run: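 HEK-293 cells stably expressing human A2B receptor were pretreated 30 min at room temperature with compound, then stimulated with 12 nM NECA for 60 min. cAMP accumulation was measured by HTRF (665/620 ratio). Values were fitted from percent of control versus log concentration.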

Sequence of Adenosine A2A receptor (P29274 whole entry): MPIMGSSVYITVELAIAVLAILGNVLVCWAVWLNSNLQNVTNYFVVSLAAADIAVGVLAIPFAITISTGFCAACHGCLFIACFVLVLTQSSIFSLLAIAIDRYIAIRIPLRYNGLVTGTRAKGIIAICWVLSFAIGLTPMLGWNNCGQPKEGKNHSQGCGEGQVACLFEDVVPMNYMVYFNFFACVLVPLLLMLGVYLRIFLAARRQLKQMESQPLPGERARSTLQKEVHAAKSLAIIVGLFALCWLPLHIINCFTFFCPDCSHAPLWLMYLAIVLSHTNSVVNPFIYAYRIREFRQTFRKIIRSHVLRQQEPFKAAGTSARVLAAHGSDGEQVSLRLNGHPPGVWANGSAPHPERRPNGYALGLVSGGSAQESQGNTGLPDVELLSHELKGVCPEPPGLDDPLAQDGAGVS

Ki [1]: < 10 nM
EC50 [2]: < 10 nM
SMILES: COCc1nc(C)oc1-c1c(-c2cccc(C#N)c2)nc(N)n2nc(Cc3ccccn3)nc12 [Example 63, 3-(5-Amino-8-(4-(methoxymethyl)-2-methyloxazol-5-yl)-2-(pyridin-2-ylmethyl)-[1,2,4]triazolo[1,5-c]pyrimidin-7-yl)benzonitrile]

Ki [1]: < 10 nM
EC50 [2]: < 10 nM
SMILES: Cc1cc(C(F)(F)F)nn1Cc1nc2c(-c3ccncn3)c(-c3cccc(C#N)c3)nc(N)n2n1 [Example 81, 3-(5-Amino-2-((5-methyl-3-(trifluoromethyl)-1H-pyrazol-1-yl)methyl)-8-(pyrimidin-4-yl)-[l*2,4]triazolo[1,5-c]pyrimidin-7-yl)benzonitrile]

Ki [1]: < 10 nM
EC50 [2]: < 10 nM
SMILES: N#Cc1cccc(-c2nc(N)n3nc([C@H](O)c4ccccc4)nc3c2-c2ccncn2)c1 [Example 65, (R)-3-(5-amino-2-(hydroxy(phenyl)methyl)-8-(pyrimidin-4-yl)-[1,2,4]triazolo[1,5-c]pyrimidin-7-yl)benzonitrile]

Ki [1]: < 10 nM
EC50 [2]: < 10 nM
SMILES: N#Cc1cccc(-c2nc(N)n3nc(C(O)c4ccccc4F)nc3c2-c2ccncn2)c1 (stereo not shown) [Example 50, 3-(5-Amino-2-((2-fluorophenyl)(hydroxy)methyl)-8-(pyrimidin-4-yl)-[1,2,4]triazolo[1,5-c]pyrimidin-7-yl)benzonitrile]

Continued, compound first:

SMILES: N#Cc1cccc(-c2nc(N)n3nc(Cc4ncccc4F)nc3c2-c2ccncn2)c1 [Example 88, 3-(5-Amino-2-((3-fluoropyridin-2-yl)methyl)-8-(pyrimidin-4-yl)-[1,2,4]triazolo[1,5-c]pyrimidin-7-yl)benzonitrile]
Ki [1]: < 10 nM
EC50 [2]: < 10 nM

SMILES: N#Cc1cccc(-c2nc(N)n3nc(CN4CC(O)C4)nc3c2-c2ccncn2)c1 [Example 57, 3-(5-Amino-2-((3-hydroxyazetidin-1-yl)methyl)-8-(pyrimidin-4-yl)-[1,2,4]triazolo[1,5-c]pyrimidin-7-yl)benzonitrile]
Ki [1]: < 10 nM
EC50 [2]: 100 to 1000 nM

SMILES: Cc1ncoc1-c1c(-c2cccc(C#N)c2)nc(N)n2nc(Cc3cccc(C(F)(F)F)n3)nc12 [Example 89, 3-(5-Amino-8-(4-methyloxazol-5-yl)-2-((6-(trifluoromethyl)pyridin-2-yl)methyl)-[1,2,4]triazolo[1,5-c]pyrimidin-7-yl)benzonitrile]
Ki [1]: < 10 nM
EC50 [2]: < 10 nM

SMILES: Cc1cnccc1-c1c(-c2cccc(C#N)c2)nc(N)n2nc(Cc3ccccn3)nc12 [Example 58, 3-(5-Amino-8-(3-methylpyridin-4-yl)-2-(pyridin-2-ylmethyl)-[1,2,4]triazolo[1,5-c]pyrimidin-7-yl)benzonitrile]
Ki [1]: < 10 nM
EC50 [2]: < 10 nM

SMILES: CCn1nncc1-c1c(-c2cccc(C#N)c2)nc(N)n2nc(Cc3ccccn3)nc12 [Example 83, 3-(5-Amino-8-(1-ethyl-1H-1,2,3-triazol-5-yl)-2-(pyridin-2-ylmethyl)-[1,2,4]triazolo[1,5-c]pyrimidin-7-yl)benzonitrile]
Ki [1]: < 10 nM
EC50 [2]: 10 to 100 nM

SMILES: COc1cccc(-c2nc(N)n3ccnc3c2-c2ccncc2)c1 [Example 4, 7-(3-Methoxyphenyl)-8-(pyridin-4-yl)imidazo[1,2-c]pyrimidin-5-amine]
Ki [1]: < 10 nM
EC50 [2]: < 10 nM

SMILES: Cc1ncoc1-c1c(-c2cccc(C#N)c2F)nc(N)n2nc(Cc3ccccn3)nc12 [Example 90, 3-(5-Amino-8-(4-methyloxazol-5-yl)-2-(pyridin-2-ylmethyl)-[1,2,4]triazolo[1,5-c]pyrimidin-7-yl)-2-fluorobenzonitrile]
Ki [1]: < 10 nM
EC50 [2]: < 10 nM
